The source of these data is patent US7714014B2, “Targeting GLI proteins in human cancer by small molecules” (The Regents of the University of California, priority 2005, dated 2010).

The test system of one data set is HT29 (colon cancer). Kind of data set: Apoptosis analysis (Annexin V FITC, flow cytometry). The data set is classed as cell-based, human. As to conditions: for % of apoptotic cells: about 3 days. The method, then:
(§1) Apoptosis was analyzed by using an Annexin V FITC Apoptosis Detection Kit (Biosource, Camarillo, Calif.), according to the manufacturer's protocol. After treatment with different small molecule compounds at various concentrations for about 3 days, cells were harvested by trypsinization, stained and immediately analyzed by flow cytometry (FACScan; Decton Dickinson, Franklin Lake, N.J.). Early apoptotic cells with exposed phosphatidylserine but intact cell membranes will bind to Annexin V-FITC, but not propidium iodide (PI). Cells in necrotic or late apoptotic stages will be labeled with both Annexin V-FITC and PI. “% apoptotic cells” or “% apoptosis” refers to the combined early and late apoptotic cells.
Flow cytometry was used to examine apoptosis in colon cancer cell line HT29 after treatment of cells with small molecule compounds FN1-5 and FN1-8. While FN1-5 induced apoptosis in HT29 cells (at 50 μM 35% apoptotic cells were observed; Table 2), no apoptosis was observed after treatment with FN1-8 (Table 3).
In general terms: In flow cytometry, cells or beads pass a laser one at a time.

The subject of a further data set is LnCAP (prostate cancer). The description is as above. It counts as cell-based, human. Conditions: 3 days. The method, then: as §1
Flow cytometry was also used to examine apoptosis induced by molecule compounds FN1-5 and FN1-8 in LnCAP cells. […] For example, app.

For data set [1], the system named is NSCLC cell lines H460, H838, H1975, H1650, and H1703. Put plainly: Cell survival assay (crystal violet). The data set is classed as cell-based, human. Conditions: for cell killing: data not shown. The method, then: (§2) Typically, the small molecule compounds of the present invention were dissolved in DMSO at a concentration of 30 mM. The small molecule compounds were then tested under cell culture conditions at different concentrations ranging from 0, 10, 30, 50, to 100 uM. To determine cell survival after treatment, the cells were incubated with the small molecule compounds in 6-well plates for about 3 days. After removal of the cell culture medium, 1-ml of 0.5% crystal violet solution (prepared in 20% ethanol and 20% methanol) was added to stain the cells for 5 min. Then the crystal violet solution was rinsed clean with tap water. Cell survival was estimated based on the density of crystal stained plates.

The test system of data set [2] is colon cancer cell line HT29. Put plainly: Cell survival assay (crystal violet). It counts as cell-based, human. Conditions: FN1-8 even at higher doses (50 μM), data not shown. The method, then:
as §2

A further data set concerns melanoma cell line LOX. Put plainly: Cell survival assay (crystal violet). The data set is classed as cell-based, human. Conditions: for cell killing effect: 3 days. The method, then:
as §2
The effect of small molecule compounds FN1-5, FN1-8, FN1-7, FN1-9U, and FN1-9S was tested using a cytotoxicity assay and the melanoma cell line LOX. LOX cells were plated in 6-well plates and incubated with 100 μM of each compound (stocks were dissolved in DMSO at 30 mM) for 3 days, as described herein. […] Live cells were stained by 0.5% crystal violet.
Cell killing was also tested using human melanoma cell line LOX and different doses of the small molecule compounds FN1-5 and FN1-8. LOX cells were plated in 6-well plates and incubated with 10, 30, and 50 μM of each compound for 3 days, as described herein.

Data set [3] relates to mesothelioma cell lines MS-1 and REN. Put plainly: Cell survival assay (crystal violet). It counts as cell-based, human. Conditions: 1, 10, and 30 μM, 3 days. The method, then:
as §2
Cell killing was also tested using mesothelioma cell lines H290, 211H, MS1 and REN and different doses of the small molecule compounds FN1-5 and FN1-8. Cells were plated in 6-well plates and incubated with 1, 10, and 30 μM of each compound for 3 days, as described herein. […] (data not shown).

Data set [4] relates to human hepatocellular carcinoma cell lines HEPG2 and SK-Hep-1. Put plainly: Cell survival assay (crystal violet). It counts as cell-based. As to conditions: for cell killing: 50 μM. The method, then: as §2
The cell-based cytotoxicity assay described herein was used to determine the effect of small molecule compounds FN1-5 and FN1-8 in the human hepatocellular carcinoma cell lines HEPG2 and SK-Hep-1. Viability of these cells was analyzed after treatment with 10, 30 and 50 μM FN1-5 or FN1-8.

Data set [5] relates to normal human muscle cells. Kind of data set: Cell survival assay (crystal violet). It counts as cell-based. Conditions: 1, 10, 30, and 50 μM, 3 days. The method, then:
as §2
The cell killing effect of small molecule compounds FN1-8, FN1-7, and FN1-5 at different doses was examined in normal human muscle cells. […] Normal muscle cells were plated in 6-well plates and incubated with 1, 10, 30, and 50 μM of each compound for 3 days, in the same manner as described herein for similar other experiments. […] Both FN1-5 and FN1-8 seem to be specific in killing cancer cells.

Data set [6] relates to human Gremlin promoter in HEK 293T cells. Put plainly: Gremlin promoter-luciferase reporter assay. Conditions: 30 μM, 18-24 hours. The data set is classed as cell-based. The method, then: One day before transfection, cells (1×10^5) were plated in 12-well plates with growth medium without antibiotics. When cells reached 80-90% of confluence they were co-transfected using 0.5 μg of each promoter construct in pGL3Basic vector and 0.025 μg pRL-TK Vector (Promega; Madison, Wis.) containing Renilla Luciferase as an internal control for the transformation efficiency. Lipofectamine 2000™ (Invitrogen Life Technologies) was used to mediate transfection for about 6 hours. Then the medium was replaced with fresh medium containing various small molecule compounds at a concentration of 30 μM, and the resulting cells were cultured for an additional 18-24 hours and subjected to luciferase assay. Briefly, cells were lysed in a lysis buffer and Firefly and Renilla Luciferase activities in cells of each well, were measured using Dual-Luciferase Assay System (Promega) and an illuminometer. The measured luciferase activities were normalized to pRL-TK Vector activity and were given relative to the basal activity of empty pGL3-Basic Vector, which was set to unity. The data shown represent mean values (±S.D.). All measurements were performed in triplicate and repeated in at least three independent experiments. […]

In the case of `O=C(NCCc1ccc(O)cc1)C1C(c2ccccc2)=NN(c2ccccc2)C1c1ccccc1` (stereo not drawn) [FN1-8, N-(2-(4-Hydroxyphenyl)ethyl)-1,3,5-triphenyl-4,5-dihydro-pyrazole-4-carboxyamide], the “% of apoptotic cells” value came out at 3.1% with HT29 (colon cancer) (HT29, 30 μM); 5.3% with HT29 (colon cancer) (HT29, 50 μM); 6.9% in the data set with LnCAP (prostate cancer) (10 μM); 11.0% in the data set with LnCAP (prostate cancer) (30 μM); 41.5% with LnCAP (prostate cancer) (50 μM). For the same molecule, the apoptosis induction entry with HT29 (colon cancer) (HT29, flow cytometry) is on record as “no apoptosis”. Further, the cell killing result in data set [1] is reported as “dramatic cell killing”; in data set [2], “no cell killing”; in data set [3] it was “no noticeable effect”; in data set [4], “dramatic cell killing”. Also, the “cell killing potency compared with FN1-5” value in [1] (same concentrations) was “more potent than FN1-5”; in the data set on melanoma cell line LOX (compared at 30 μM), “more potent than FN1-5”; in data set [4], “more potent”. The cell killing effect entry in the data set with melanoma cell line LOX (50 μM) was “Dramatic cell killing effect”; in the data set with melanoma cell line LOX (100 μM), “dramatic cell killing effect”. Further, in data set [5], the “cell killing effect in normal cells” value is reported as “No noticeable cell killing effect”. Further, the Gremlin promoter activity result in data set [6] is “inactive”.

For the molecule `O=C(NCCCCCO)C1C(c2ccccc2)=NN(c2ccccc2)C1c1ccccc1` (stereo not drawn) [FN1-5, N-(5-Hydroxypentyl)-1,3,5-triphenyl-4,5-dihydro-pyrazole-4-carboxyamide], the “% of apoptotic cells” value is on record as 5.8% in the data set with HT29 (colon cancer) (HT29, 10 μM); 15.5% in the data set on HT29 (colon cancer) (HT29, 30 μM); 32.9% in the data set on HT29 (colon cancer) (HT29, 50 μM); 7.7% with LnCAP (prostate cancer) (30 μM); 16.3% in the data set with LnCAP (prostate cancer) (50 μM). Moreover, the cell killing result in [1] is recorded as “dramatic cell killing”; in [2] it was “dramatic cell killing”; in [3] it was “no noticeable effect”; in data set [4], “dramatic cell killing”. For the same molecule, the cell killing effect result is recorded as “Dramatic cell killing effect” in the data set on melanoma cell line LOX (50 μM) and “dramatic cell killing effect” with melanoma cell line LOX (100 μM). In [5], the “cell killing effect in normal cells” value is “No noticeable cell killing effect”. In addition, the Gremlin promoter activity result in [6] was “inactive”.
